Read-outs that look alike come from different tables or passages of the source.
System: HCV 1b-377-neo replicon cells
Test: HCV Replicon assay, HCV 1b genotype
Format: cell-based
Protocol: An HCV Replicon assay was utilized in the present disclosure, and was prepared, conducted and validated as described in commonly owned PCT/US2006/022197 and in O'Boyle et. al. Antimicrob Agents Chemother. 2005 April; 49(4): 1346-53.
HCV 1b-377-neo replicon cells were used to test the currently described compound series as well as cells resistant to compound A containing a Y2065H mutation in NS5A (described in application PCT/US2006/022197). The compounds tested were determined to have more than 10-fold less inhibitory activity on cells containing the mutation than wild-type cells indicating a related mechanism of action between the two compound series. Thus, the compounds of the present disclosure can be effective to inhibit the function of the HCV NS5A protein and are understood to be as effective in combinations as previously described in application PCT/US2006/022197 and commonly owned WO/04014852. Further, the compounds of the present disclosure can be effective against the HCV 1b genotype. It should also be understood that the compounds of the present disclosure can inhibit multiple genotypes of HCV. […] In one embodiment compounds of the present disclosure are active against the 1a, 1b, 2a, 2b, 3a, 4a, and 5a genotypes.

[1] = Hepatitis C virus, class symbol, read-out: EC50 range against HCV 1b

Q: For `COCC[C@H](NC(=O)OC)C(=O)N1CCC[C@H]1c1ncc(-c2ccc3c4ccc(-c5cnc([C@@H]6CCCN6C(=O)[C@H](CCOC)NC(=O)OC)[nH]5)cc4n(C)c3c2)[nH]1` [Example 24, methyl ((1S)-3-methoxy-1-(((2S)-2-(5-(7-(2-((2S)-1-(N-(methoxycarbonyl)-O-methyl-L-homoseryl)-2-pyrrolidinyl)-1H-imidazol-5-yl)-9-methyl-9H-carbazol-2-yl)-1H-imidazol-2-yl)-1-pyrrolidinyl)carbonyl)propyl) carbamate], which EC50 (class symbol, read-out: EC50 range against HCV 1b) is on record?
A: The EC50 was 0.101 to 0.999 nM.

Q: Which EC50 [1] does the source give for `COC(=O)N[C@H](C(=O)N1CCC[C@H]1c1ncc(-c2ccc3c4ccc(-c5cnc([C@@H]6CCCN6C(=O)[C@@H](NC(=O)OC)C(C)C)[nH]5)cc4n(C)c3c2)[nH]1)C(C)C` [Example 25, methyl ((1S)-1-(((2S)-2-(5-(7-(2-((2S)-1-((2S)-2-((methoxycarbonyl)amino)-3-methylbutanoyl)-2-pyrrolidinyl)-1H-imidazol-5-yl)-9-methyl-9H-carbazol-2-yl)-1H-imidazol-2-yl)-1-pyrrolidinyl)carbonyl)-2-methylpropyl)carbamate] here?
A: The EC50 was 0.001 to 0.1 nM.

Q: Which EC50 [1] does the source give for `COC(=O)N[C@@H](C)C(=O)N1CCC[C@H]1c1ncc(-c2ccc3c4ccc(-c5cnc([C@@H]6CCCN6C(=O)[C@H](C)NC(=O)OC)[nH]5)cc4n(S(=O)(=O)c4ccccc4)c3c2)[nH]1` [Example 26, methyl ((1S)-2-((2S)-2-(5-(7-(2-((2S)-1-(N-(methoxycarbonyl)-L-alanyl)-2-pyrrolidinyl)-1H-imidazol-5-yl)-9-(phenylsulfonyl)-9H-carbazol-2-yl)-1H-imidazol-2-yl)-1-pyrrolidinyl)-1-methyl-2-oxoethyl)carbamate] here?
A: Its EC50 is 0.001 to 0.1 nM.

Q: `COC(=O)N[C@H](C(=O)N1CCC[C@H]1c1ncc(-c2ccc3c4ccc(-c5cnc([C@@H]6CCCN6C(=O)[C@@H](NC(=O)OC)C(C)C)[nH]5)cc4n(S(=O)(=O)c4ccccc4)c3c2)[nH]1)C(C)C` [Example 27, methyl ((1S)-1-(((2S)-2-(5-(7-(2-((2S)-1-((2S)-2-((methoxycarbonyl)amino)-3-methylbutanoyl)-2-pyrrolidinyl)-1H-imidazol-5-yl)-9-(phenylsulfonyl)-9H-carbazol-2-yl)-1H-imidazol-2-yl)-1-pyrrolidinyl)carbonyl)-2-methylpropyl)carbamate] was tested. Which EC50 [1] did it give?
A: Its EC50 is 0.001 to 0.1 nM.

Q: For `COCC[C@H](NC(=O)OC)C(=O)N1CCC[C@H]1c1ncc(-c2ccc3c4ccc(-c5cnc([C@@H]6CCCN6C(=O)[C@H](CCOC)NC(=O)OC)[nH]5)cc4n(S(=O)(=O)c4ccccc4)c3c2)[nH]1` [Example 28, methyl ((1S)-3-methoxy-1-(((2S)-2-(5-(7-(2-((2S)-1-(N-(methoxycarbonyl)-O-methyl-L-homoseryl)-2-pyrrolidinyl)-1H-imidazol-5-yl)-9-(phenylsulfonyl)-9H-carbazol-2-yl)-1H-imidazol-2-yl)-1-pyrrolidinyl)carbonyl)propyl)carbamate], which EC50 [1] is on record?
A: Its EC50 is 0.001 to 0.1 nM.

Q: Which EC50 (Hepatitis C virus, value in nM, read-out: EC50 value against HCV 1b) does the source give for `COC(=O)N[C@@H](C)C(=O)N1CCC[C@H]1c1ncc(-c2ccc3c(c2)[nH]c2cc(-c4cnc([C@@H]5CCCN5C(=O)[C@H](C)NC(=O)OC)[nH]4)ccc23)[nH]1` [Example 30, methyl ((1S)-2-((2S)-2-(5-(7-(2-((2S)-1-(N-(methoxycarbonyl)-L-alanyl)-2-pyrrolidinyl)-1H-imidazol-5-yl)-9H-carbazol-2-yl)-1H-imidazol-2-yl)-1-pyrrolidinyl)-1-methyl-2-oxoethyl)carbamate] here?
A: The EC50 was 20 nM.

Q: How did the EC50 [1] turn out when `COCC[C@H](NC(=O)OC)C(=O)N1CCC[C@H]1c1ncc(-c2ccc3c(c2)[nH]c2cc(-c4cnc([C@@H]5CCCN5C(=O)[C@H](CCOC)NC(=O)OC)[nH]4)ccc23)[nH]1` [Example 31, methyl ((1S)-3-methoxy-1-(((2S)-2-(5-(7-(2-((2S)-1-(N-(methoxycarbonyl)-O-methyl-L-homoseryl)-2-pyrrolidinyl)-1H-imidazol-5-yl)-9H-carbazol-2-yl)-1H-imidazol-2-yl)-1-pyrrolidinyl)carbonyl)propyl) carbamate] was run?
A: Its EC50 is 1 to 99 nM.

Q: With `COC(=O)N[C@H](C(=O)N1CCC[C@H]1c1ncc(-c2ccc3c(c2)[nH]c2cc(-c4cnc([C@@H]5CCCN5C(=O)[C@@H](NC(=O)OC)C(C)C)[nH]4)ccc23)[nH]1)C(C)C` [Example 32] as the molecule, how does the EC50 [1] read?
A: Its EC50 is 0.101 to 0.999 nM.

Q: Which EC50 [1] does the source give for `COCCn1c2cc(-c3cnc([C@@H]4CCCN4C(=O)[C@@H](NC(=O)OC)C(C)C)[nH]3)ccc2c2ccc(-c3cnc([C@@H]4CCCN4C(=O)[C@@H](NC(=O)OC)C(C)C)[nH]3)cc21` [Example 33, methyl ((1S)-1-(((2S)-2-(5-(7-(2-((2S)-1-((2S)-2-((methoxycarbonyl)amino)-3-methylbutanoyl)-2-pyrrolidinyl)-1H-imidazol-5-yl)-9-(2-methoxyethyl)-9H-carbazol-2-yl)-1H-imidazol-2-yl)-1-pyrrolidinyl)carbonyl)-2-methylpropyl)carbamate] here?
A: The EC50 was 0.001 to 0.1 nM.

Q: For `COCCn1c2cc(-c3cnc([C@@H]4CCCN4C(=O)[C@H](C)NC(=O)OC)[nH]3)ccc2c2ccc(-c3cnc([C@@H]4CCCN4C(=O)[C@H](C)NC(=O)OC)[nH]3)cc21` [Example 34, methyl ((1S)-2-((2S)-2-(5-(7-(2-((2S)-1-(N-(methoxycarbonyl)-L-alanyl)-2-pyrrolidinyl)-1H-imidazol-5-yl)-9-(2-methoxyethyl)-9H-carbazol-2-yl)-1H-imidazol-2-yl)-1-pyrrolidinyl)-1-methyl-2-oxoethyl)carbamate], which EC50 [1] is on record?
A: Its EC50 is 1 to 99 nM.

Q: For `COCCn1c2cc(-c3cnc([C@@H]4CCCN4C(=O)[C@@H](NC(=O)OC)[C@@H](C)OC)[nH]3)ccc2c2ccc(-c3cnc([C@@H]4CCCN4C(=O)[C@@H](NC(=O)OC)[C@@H](C)OC)[nH]3)cc21` [Example 35, methyl ((1S,2R)-2-methoxy-1-(((2S)-2-(5-(7-(2-((2S)-1-(N-(methoxycarbonyl)-O-methyl-L-threonyl)-2-pyrrolidinyl)-1H-imidazol-5-yl)-9-(2-methoxyethyl)-9H-carbazol-2-yl)-1H-imidazol-2-yl)-1-pyrrolidinyl)carbonyl)propyl)carbamate], which EC50 (Hepatitis C virus, value in pM, read-out: EC50 value against HCV 1b) is on record?
A: The EC50 was 0.662 nM.
